Patent publication EP0754455A1, “PHARMACEUTICAL COMPOSITIONS BASED ON AMINOMETHYLINDOLES AND THEIR THERAPEUTICAL APPLICATION AS NEUROPROTECTORS IN PARKINSON AND ALZHEIMER DISEASES” (CONSEJO SUPERIOR INVESTIGACIONES CIENTIFICAS (CSIC), priority 1995, dated 1996)
Where two headings read alike, the source gives them in different places.

How the values were obtained:
MAO-A [1] = target: T1, MAO-A (Rattus norvegicus, UniProt P21396); experiment: biochemical; type: biochemical, Sprague-Dawley rat
T1 construct: human and rat tissue to obtain the isolated forms of monoamine oxidase A and B; from tissue
T1 sequence (P21396 1-526): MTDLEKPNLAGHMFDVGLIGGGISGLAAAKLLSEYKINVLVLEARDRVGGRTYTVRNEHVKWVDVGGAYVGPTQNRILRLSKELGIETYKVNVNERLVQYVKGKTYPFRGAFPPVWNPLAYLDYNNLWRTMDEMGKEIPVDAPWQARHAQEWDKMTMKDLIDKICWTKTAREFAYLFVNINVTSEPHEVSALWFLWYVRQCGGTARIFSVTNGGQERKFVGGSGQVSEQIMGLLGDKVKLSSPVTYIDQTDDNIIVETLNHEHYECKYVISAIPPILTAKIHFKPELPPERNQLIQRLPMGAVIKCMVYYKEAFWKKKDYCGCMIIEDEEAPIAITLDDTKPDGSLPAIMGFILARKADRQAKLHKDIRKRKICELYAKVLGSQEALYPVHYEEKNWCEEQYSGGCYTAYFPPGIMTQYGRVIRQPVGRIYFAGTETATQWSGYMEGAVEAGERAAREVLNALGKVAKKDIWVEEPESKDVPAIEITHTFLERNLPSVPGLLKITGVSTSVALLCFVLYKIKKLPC
Method: (§1) The mitochondrial portion of Sprague-Dawley rat was used to determine the MAO-A and MAO-B activity.
(§2) Determinations were made of the comparative MAO-A and MAO-B activity inhibition curves of the various compounds under study at time 0 and 30 min. by measuring the remaining activity to 5-HT and PEA as substrates.

MAO-B [2] = target: T2, MAO-B (Rattus norvegicus, UniProt P19643); experiment: MAO-B inhibition, mitochondrial portion of rat (IC50, time dependence, irreversibility), substrate PEA; type: biochemical, Sprague-Dawley rat; conditions: for IC50: MAO-B (lines B..), substrate PEA, rat mitochondria
T2 construct: from tissue; host or cells: Sprague-Dawley rat liver, mitochondrial fraction
T2 sequence (P19643 1-520): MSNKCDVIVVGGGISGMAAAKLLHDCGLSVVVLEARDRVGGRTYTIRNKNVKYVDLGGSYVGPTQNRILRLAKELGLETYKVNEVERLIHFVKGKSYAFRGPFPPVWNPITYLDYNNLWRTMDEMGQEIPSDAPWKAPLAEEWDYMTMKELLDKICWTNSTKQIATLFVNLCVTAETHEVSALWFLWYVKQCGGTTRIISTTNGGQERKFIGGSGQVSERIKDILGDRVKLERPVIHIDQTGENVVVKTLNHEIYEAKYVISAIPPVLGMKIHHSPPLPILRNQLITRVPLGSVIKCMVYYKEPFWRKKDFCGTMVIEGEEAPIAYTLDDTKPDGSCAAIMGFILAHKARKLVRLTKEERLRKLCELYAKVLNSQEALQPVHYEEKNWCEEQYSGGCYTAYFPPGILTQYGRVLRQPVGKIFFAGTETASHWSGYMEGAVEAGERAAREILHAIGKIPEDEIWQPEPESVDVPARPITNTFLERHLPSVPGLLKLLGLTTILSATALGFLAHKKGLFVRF
Method: as §1, §2

MAO-B [3] = target: T2, MAO-B; experiment: Kinetic parameters of suicide-type inhibition, MAO-B (selectivity K1 MAO-A / K1 MAO-B); type: biochemical, Sprague-Dawley rat; conditions: selectivity for MAO-B
Source text: K1 is the affinity constant of the first stage of the reaction and K1 MAO-A / K1 MAO-B the expression of the selectivity.
K^1cat is the velocity constant for the formation of the covalent irreversible complex during the second stage of the process. To compare the values of these constants towards the two forms of MAO, we express the inhibition efficacy as the ratio K^1cat/K1. The value of these constants (see Tables 2 and 3), is the result of three different experiments, with their corresponding SEM.

MAO-A [4] = target: T3, MAO-A (Homo sapiens, UniProt P21397); experiment: MAO-A inhibition in homogenated human cerebral cortex; type: biochemical
T3 construct: performed using homogenated human cerebral cortex obtained from autopsies; from tissue; host or cells: post-mortem human cerebral cortex homogenate
T3 sequence (P21397 1-527): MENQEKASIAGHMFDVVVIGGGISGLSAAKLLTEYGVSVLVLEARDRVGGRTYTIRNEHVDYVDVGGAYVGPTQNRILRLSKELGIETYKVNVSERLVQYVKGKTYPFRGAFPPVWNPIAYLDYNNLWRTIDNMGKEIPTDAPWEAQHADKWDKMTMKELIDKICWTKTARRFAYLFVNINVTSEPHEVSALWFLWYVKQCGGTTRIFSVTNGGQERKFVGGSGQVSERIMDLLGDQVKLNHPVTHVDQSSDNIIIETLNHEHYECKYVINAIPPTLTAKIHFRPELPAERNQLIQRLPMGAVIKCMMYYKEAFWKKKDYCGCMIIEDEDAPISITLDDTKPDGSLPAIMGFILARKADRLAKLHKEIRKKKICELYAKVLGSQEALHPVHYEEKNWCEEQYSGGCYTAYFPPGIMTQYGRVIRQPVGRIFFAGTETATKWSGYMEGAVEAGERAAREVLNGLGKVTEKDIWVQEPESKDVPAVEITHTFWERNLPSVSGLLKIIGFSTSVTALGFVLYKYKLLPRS
Source text: They were provided by Dr. Fco Javier González Oliván (Forensic Anatomic Institute of the Hospital Clínico Provincial in Barcelona).

MAO-B [5] = target: T4, MAO-B (Mus musculus, UniProt Q8BW75); experiment: Ex vivo inhibition of brain MAO-B after i.p. administration
T4 sequence (Q8BW75 1-520): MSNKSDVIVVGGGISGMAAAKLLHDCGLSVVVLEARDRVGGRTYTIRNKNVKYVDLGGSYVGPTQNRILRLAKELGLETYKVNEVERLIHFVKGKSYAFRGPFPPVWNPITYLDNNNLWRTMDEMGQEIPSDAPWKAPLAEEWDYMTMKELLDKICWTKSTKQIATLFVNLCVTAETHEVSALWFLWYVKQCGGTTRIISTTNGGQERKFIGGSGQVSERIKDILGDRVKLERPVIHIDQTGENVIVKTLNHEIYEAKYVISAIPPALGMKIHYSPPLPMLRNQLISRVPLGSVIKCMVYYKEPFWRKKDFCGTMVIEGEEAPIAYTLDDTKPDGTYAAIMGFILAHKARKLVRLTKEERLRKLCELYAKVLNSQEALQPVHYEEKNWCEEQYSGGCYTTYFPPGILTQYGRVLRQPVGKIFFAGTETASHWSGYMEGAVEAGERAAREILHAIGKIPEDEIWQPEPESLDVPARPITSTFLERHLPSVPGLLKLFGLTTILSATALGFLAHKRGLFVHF
Method: The pharmacological assays were carried out on C57/BL mice. These animals are sensitive to the induction of the symptomatology of Parkinson's disease through the action of MPTP.
The animals were sacrificed by decapitation after 2 hours and the brains homogenised in potassium phosphate buffer 50 mM, pH 7.2. Determinations were made of the MAO-A and MAO-B activity in each case using radiometric methods.

Q: Which results are given for `C#CCNCc1cc2cc(OCc3ccccc3)ccc2[nH]1` [FA-73]?
A: IC50 (MAO-A [1]): 15800 nM; dependence of the inhibition on the incubation time (MAO-A [1]; MAO-A): drop in the formation of product as a function of the time of incubation; irreversibility of the inhibition process (MAO-A [1]; MAO-A, inhibitor concentrations close to the IC50): irreversibility; IC50 (MAO-A [1]; read-out: IC50 30 min., MAO-A (lines A..), substrate 5-HT, 30 min incubation, rat mitochondria): 1250 nM; IC50 (MAO-B [2]; IC50 0 min, 0 min incubation): 100 nM; IC50 (MAO-B [2]; IC50 30 min., 30 min incubation): 15 nM; dependence of the inhibition on the incubation time (MAO-B [2]; MAO-B): drop in the formation of product as a function of the time of incubation; irreversibility of the inhibition process (MAO-B [2]; MAO-B, inhibitor concentrations close to the IC50): irreversibility; K1 MAO-A/K1 MAO-B (MAO-B [3]): 1066.6; IC50 (MAO-A [4]): 20000 nM; crossing of the hematoencephalic barrier (MAO-B [5]; concluded from brain MAO-B inhibition after 4 mg/Kg i.p. in C57/BL mice): crosses the hematoencephalic barrier; MAO-B ACTIVITY (MAO-B [5]; mouse brain homogenate 2 hours after i.p., l-deprenyl 10 mg/Kg, tested compound 4 mg/Kg, control 303): 16
